From patent publication US20030158204A1, “Diamino phenothiazine derivatives and composition comprising same” (priority 2000, published 2003)

Tests used:
[1] = Hydrophilicity / water solubility; type: physicochemical; conditions: qualitative
Method: These derivatives more or less have the properties of methylene blue, are hydrosoluble, active by the enteral and parenteral route (IV, SC, etc.) and they never give rise to acute or chronic toxicity nor undesirable effects, at doses comprised between 0.05 mg/Kg and 40 mg/Kg.

[2] = Half life of the compound; conditions: qualitative
[3] = test system: pernicious attacks resistant to quinine (malaria); conditions: IV route; cited from earlier work
[4] = used externally and internally; cited from earlier work

hydrophilicity [1]	half life [2]	Compound	activity on pernicious attacks resistant to quinine [3]	antiseptic activity [4]
decreased hydrophilicity		CNc1ccc2nc3c(C)cc(N(C)C)cc3[s+]c2c1C [Example 1, 4-5 dimethyl-7-(dimethylamino)-3(methylimino)-3H phenothiazine]		
very hydrophilic	short half life	CNc1ccc2nc3c(O)cc(N(C)C)cc3[s+]c2c1O [Example 4]		
		CN(C)c1ccc2nc3ccc(=[N+](C)C)cc-3sc2c1 [Methylene blue, methylene blue]	active	moderate

Compound	hydrophilicity [1]	half life [2]	activity on pernicious attacks resistant to quinine [3]	antiseptic activity [4]
CNc1ccc2nc3c(Cl)cc(N(C)C)cc3[s+]c2c1C [Example 2]	more hydrophilic than the reference daughter molecule	considerably increases the half life		
